Tested on: mitochondria
Test: MitoRed analysis of mitochondrial morphology after 6-OHDA (cellular Parkinson's Disease model)
Type: cell-based
Details: 100 μM; 1 hour
Method: Cultures were established on 3 separate occasions in quadruplicate and stained with MitoRED to identify mitochondria after 1 hour of treatment. Statistical significance relative to untreated control is denoted with ** where P<0.01 and *** where P<0.001. Representative images of 100 μM 6-OHDA-treated MitoRED stained cultures (C) and 100 μM 6-OHDA and leptin116-130 co-treated MitoRED stained cultures are shown. Scale bar represents […].
The human neuroblastoma cell line, SH-SY5Y (ECACC, UK) was maintained in Dulbecco's Modified Eagle Medium supplemented with glucose ([…]) and 10% (v/v) cosmic calf serum (Fisher Scientific, UK) at 37° C. in a humidified atmosphere of 5% CO2, 95% air and allowed to reach 70-80% confluence before seeding. Cells (passage 10-18) were plated at 2×10^5 cells on 13 mm borosilicate class coverslips or at 10 000 cells per well in 96 well tissue culture plates (Nunc, VWR, UK) prior to treatment. Reagents used were (from Sigma UK unless stated) 1 nM human leptin, leptin (116-121), leptin (117-122) and leptin (117-125); 0.0001-1 nm murine leptin fragments leptin (116-121), leptin (117-122) and leptin (116-130); 100 μM 6-hydroxydopamine; 10 μM CuCl2; […] Aβ1-42.
Cells were treated with pre-warmed cell culture medium containing 1 μM MitoRed ((9-[2-(4′-Methylcoumarin-7′-oxycarbonyl)phenyl]-3,6-bis(diethylamino)xanthylium chloride) and returned to the incubator for 45 minutes. Following fixation in NBF for 15 minutes, cells were washed 3 times in PBS. Coverslips were mounted in fluorescence mountant onto microscope slides and imaged on the Zeiss Axio MR2 microscope. The mean mitochondrial area and index of fragmentation (number of mitochondria: total area of mitochondrial material) were calculated using Fiji.

NCCc1cc(O)c(O)cc1O [6-OHDA, 6-hydroxydopamine, reference compound]
cross-sectional area of individual mitochondria, 6-OHDA alone: increase in the cross-sectional area of individual mitochondria | mitochondrial fragmentation, 6-OHDA alone: decrease in mitochondrial fragmentation

Source: US20200255492A1, “LEPTIN PEPTIDES AND THEIR USE FOR TREATING NEUROLOGICAL DISORDERS” (UNIVERSITY OF DUNDEE, priority 2017, published 2020)
